The assay deals with Human glioma cells U87. The assay is described as follows: Glioma treatment in nude mice. It counts as in vivo. How it is done: Human glioma cells U87 were subcutaneously transplanted into the back of nude mice of 6 weeks old, which were used as the tumor model after tumor formation. In the experiment, the mice were divided into 4 groups with 8 mice in each group: normal control group, model control group, ADRB3 antibody treatment group, Gemcitabine and CD40 antibody combined treatment group. The ADRB3 antibody treatment group was intraperitoneally injected with 0.1 mg of ADRB3 antibody once every 5 days for a total of 6 weeks. The model control group was intraperitoneally injected with equivalent amount of normal saline.

On to `Nc1ccn([C@@H]2O[C@H](CO)[C@@H](O)C2(F)F)c(=O)n1` [Gemcitabine], for which the “metastatic lesion in the lung” value is on record as “some metastases are found”.
